Experimental data: patent US6737383B1, “Herbicidal oxadiazolidines” (priority 1999, dated 2004)

How the values were obtained:
[1] = system: winter barley; assay: Test E winter barley; assay type: in vivo, Hordeum vulgare; conditions: Preemergence
[2] = system: blackgrass; assay: Test B pre/postemergence blackgrass; assay type: in vivo, Alopecurus myosuroides
In short: (§1)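 Herbicidal effect was estimated by eye on a ten-point control scale after plants spent twelve to sixteen days in a greenhouse following soil or foliar treatment. Foliar sprays targeted plants at one to four leaves; all doses were formulated in a non-phytotoxic solvent with surfactant.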

[3] = system: winter wheat; assay: Test E winter wheat; assay type: in vivo, Triticum aestivum; conditions: Postemergence
In short: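 Postemergence: spray at 1–4 leaf stage, soil 60:40 sandy loam:potting mix; solvent + surfactant formulation; greenhouse 21–28 d; visual injury vs untreated controls.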

[4] = system: winter wheat; assay: Test E winter wheat; assay type: in vivo, Triticum aestivum; conditions: Preemergence
[5] = system: blackgrass; assay: Test E blackgrass; assay type: in vivo, Alopecurus myosuroides; conditions: Preemergence
[6] = system: bedstraw; assay: Test B pre/postemergence bedstraw; assay type: in vivo, Galium aparine
In short: as §1

[7] = system: green foxtail; assay: Test E green foxtail; assay type: in vivo, Setaria viridis; conditions: Preemergence
[8] = system: Italian ryegrass; assay: Test E Italian ryegrass; assay type: in vivo, Lolium multiflorum; conditions: Preemergence
[9] = system: wild oat; assay: Test E wild oat; assay type: in vivo, Avena fatua; conditions: Preemergence; for Wild oat plant response rating (0 to 100 scale): Rate 250 g/ha
[10] = system: soybean; assay: Test B pre/postemergence soybean; assay type: in vivo, Glycine max
In short: as §1

[11] = system: velvetleaf; assay: Test B pre/postemergence velvetleaf; assay type: in vivo, Abutilon theophrasti
In short: as §1

[12] = Rate 500 g/ha, 0 to 100 scale where 0 is no effect and 100 is complete control
[13] = Rate 1000 g/ha, 0 to 100 scale where 0 is no effect and 100 is complete control
[14] = Postemergence, Rate 62 g/ha, scale 0 to 10, 0 is no effect, 10 is complete control
[15] = Postemergence, Rate 250 g/ha, scale 0 to 10, 0 no effect, 10 complete control
[16] = Preemergence, Rate 62 g/ha, scale 0 to 10 (0 no effect, 10 complete control)
[17] = Preemergence, Rate 125 g/ha, scale 0 to 10 (0 no effect, 10 complete control)
[18] = Preemergence, Rate 250 g/ha, scale of 0 to 10 where 0 is no effect and 10 is complete control
[19] = Preemergence, Rate 500 g/ha, scale 0 (no effect) to 10 (complete control)
[20] = Rate 125 g/ha, Postemergence, scale 0 to 10, 0 no effect, 10 complete control
[21] = Rate 500 g/ha, Postemergence, scale 0 to 10, 0 no effect, 10 complete control
[22] = Rate 1000 g/ha, 0 to 100 scale, 0 no effect, 100 complete control
[23] = Preemergence, Rate 62 g/ha, scale of 0 to 10 where 0 is no effect and 10 is complete control
[24] = Preemergence, Rate 500 g/ha, scale of 0 to 10 where 0 is no effect and 10 is complete control
[25] = Rate 62 g/ha, Postemergence, scale of 0 to 10 where 0 is no effect and 10 is complete control
[26] = Rate 125 g/ha, Postemergence, scale 0 to 10
[27] = Rate 125 g/ha, Preemergence, scale of 0 to 10 where 0 is no effect and 10 is complete control
[28] = Rate 250 g/ha, 0 to 100 scale where 0 is no effect and 100 is complete control
[29] = Rate 500 g/ha, 0 to 100 scale (0 no effect, 100 complete control)
[30] = Rate 62 g/ha, Postemergence, scale 0 to 10 (0 no effect, 10 complete control)
[31] = Rate 125 g/ha, Postemergence, scale of 0 to 10 where 0 is no effect and 10 is complete control
[32] = Rate 250 g/ha, Postemergence, scale of 0 to 10 where 0 is no effect and 10 is complete control

`CC(C)N(C(=O)n1oc(=O)n(Cc2cccs2)c1=O)c1ccc(F)cc1F` [Compound 86] was tested, and the “Plant response rating, Barley (winter)” value ([1]; Rate 250 g/ha, 0 to 100 scale) was 70, the “Plant response rating, Barley (winter)” value [1, 12] was 80 and the “Plant response rating, Barley (winter)” value [1, 13] was 70. For the same compound, the “Blackgrass plant response rating” value [2, 14] was 0, the “Blackgrass plant response rating” value [2, 15] was 1 and the “Blackgrass plant response rating” value [2, 16] was 2. The “Plant response rating, Blackgrass” value [2, 17] was 3, the “Plant response rating, Blackgrass” value [2, 18] was 5 and the “Blackgrass plant response rating” value [2, 19] was 8. For the same compound, the “Blackgrass plant response rating” value [2, 20] was 0, the “Blackgrass plant response rating” value [2, 21] was 3 and the “Plant response rating, Wheat (winter)” value ([3]; Rate 250 g/ha, 0 to 100 scale (0 no effect, 100 complete control)) was 55. For the same compound, the “Plant response rating, Wheat (winter)” value ([3]; Rate 1000 g/ha, 0 to 100 scale, 0 is no effect and 100 is complete control) was 60, the “Plant response rating, Wheat (winter)” value ([3]; Rate 500 g/ha, 0 to 100 scale, 0 no effect, 100 complete control) was 70 and the “Plant response rating, Wheat (winter)” value ([4]; Rate 250 g/ha, 0 to 100 scale) was 60. For the same compound, the “Plant response rating, Wheat (winter)” value [4, 12] was 40, the “Plant response rating, Wheat (winter)” value [4, 13] was 65 and the “Plant response rating, Blackgrass” value ([5]; Rate 250 g/ha, 0 to 100 scale) was 60. For the same compound, the “Plant response rating, Blackgrass” value [5, 12] was 55, the “Plant response rating, Blackgrass” value [5, 13] was 65 and the “Bedstraw plant response rating” value [6, 14] was 2. For the same compound, the “Bedstraw plant response rating” value [6, 15] was 6, the “Bedstraw plant response rating” value [6, 16] was 0 and the “Plant response rating, Bedstraw” value [6, 17] was 0. For the same compound, the “Plant response rating, Bedstraw” value [6, 18] was 0, the “Bedstraw plant response rating” value [6, 19] was 0 and the “Bedstraw plant response rating” value [6, 20] was 4. For the same compound, the “Bedstraw plant response rating” value [6, 21] was 8, the “Plant response rating, Green foxtail” value ([7]; Rate 250 g/ha, 0 to 100 scale) was 40 and the “Plant response rating, Green foxtail” value [7, 12] was 55. For the same compound, the “Plant response rating, Green foxtail” value [7, 13] was 100, the “Plant response rating, I. Ryegrass” value ([8]; Rate 250 g/ha, 0 to 100 scale) was 30 and the “Plant response rating, I. Ryegrass” value [8, 12] was 50. For the same compound, the “Plant response rating, I. Ryegrass” value [8, 13] was 60, the “Plant response rating, Wild oat” value [9, 12] was 60 and the “Plant response rating, Wild oat” value [9, 13] was 70. For the same compound, the “Soybean plant response rating” value [10, 14] was 2, the “Soybean plant response rating” value [10, 15] was 2 and the “Soybean plant response rating” value [10, 16] was 0. The “Plant response rating, Soybean” value [10, 17] was 0, the “Plant response rating, Soybean” value [10, 18] was 0 and the “Soybean plant response rating” value [10, 19] was 0. The “Soybean plant response rating” value [10, 20] was 2, the “Soybean plant response rating” value [10, 21] was 3 and the “Velvetleaf plant response rating” value [11, 14] was 0. For the same compound, the “Velvetleaf plant response rating” value [11, 15] was 0, the “Velvetleaf plant response rating” value [11, 16] was 0 and the “Plant response rating, Velvetleaf” value [11, 17] was 0. For the same compound, the “Plant response rating, Velvetleaf” value [11, 18] was 3, the “Velvetleaf plant response rating” value [11, 19] was 5 and the “Velvetleaf plant response rating” value [11, 20] was 0. The “Velvetleaf plant response rating” value [11, 21] was 2.
For `CC(C)N(C(=O)n1oc(=O)n([C@H](C)c2ccccc2)c1=O)c1ccc(F)cc1F` [Compound 238], the “Barley (winter) plant response rating (0 to 100 scale)” value ([1]; Rate 250 g/ha) was 40, the “Plant response rating, Barley (winter)” value [1, 22] was 30 and the “Blackgrass plant response rating” value [2, 23] was 0. The “Blackgrass plant response rating” value [2, 18] was 0, the “Plant response rating, Blackgrass” value [2, 24] was 0 and the “Blackgrass plant response rating” value [2, 25] was 0. For the same compound, the “Blackgrass plant response rating” value [2, 26] was 0, the “Blackgrass plant response rating” value [2, 27] was 0 and the “Plant response rating (0 to 10; 0 is no effect, 10 is complete control), Blackgrass” value ([2]; Rate 250 g/ha, Postemergence) was 0. For the same compound, the “Blackgrass plant response rating” value [2, 21] was 5, the “Plant response rating, Wheat (winter)” value [3, 13] was 40 and the “Wheat (winter) plant response rating” value [3, 28] was 60. For the same compound, the “Wheat (winter) plant response rating (0 to 100 scale)” value ([4]; Rate 250 g/ha) was 40, the “Plant response rating, Wheat (winter)” value [4, 22] was 50 and the “Blackgrass plant response rating (0 to 100 scale)” value ([5]; Rate 250 g/ha) was 50. For the same compound, the “Plant response rating, Blackgrass” value [5, 22] was 75, the “Bedstraw plant response rating” value [6, 23] was 0 and the “Bedstraw plant response rating” value [6, 18] was 0. The “Plant response rating, Bedstraw” value [6, 24] was 3, the “Bedstraw plant response rating” value [6, 25] was 0 and the “Bedstraw plant response rating” value [6, 26] was 2. The “Bedstraw plant response rating” value [6, 27] was 0, the “Plant response rating (0 to 10; 0 is no effect, 10 is complete control), Bedstraw” value ([6]; Rate 250 g/ha, Postemergence) was 8 and the “Bedstraw plant response rating” value [6, 21] was 8. For the same compound, the “Green foxtail plant response rating (0 to 100 scale)” value ([7]; Rate 250 g/ha) was 70, the “Plant response rating, Green foxtail” value [7, 22] was 100 and the “I. Ryegrass plant response rating (0 to 100 scale)” value ([8]; Rate 250 g/ha) was 50. For the same compound, the “Plant response rating, I. Ryegrass” value [8, 22] was 85, the “Wild oat plant response rating (0 to 100 scale)” value [9] was 50 and the “Plant response rating, Wild oat” value [9, 22] was 50. The “Soybean plant response rating” value [10, 23] was 0, the “Soybean plant response rating” value [10, 18] was 0 and the “Plant response rating, Soybean” value [10, 24] was 0. The “Soybean plant response rating” value [10, 25] was 1, the “Soybean plant response rating” value [10, 27] was 0 and the “Soybean plant response rating” value [10, 21] was 2. The “Velvetleaf plant response rating” value [11, 23] was 0, the “Velvetleaf plant response rating” value [11, 18] was 0 and the “Plant response rating, Velvetleaf” value [11, 24] was 3. The “Velvetleaf plant response rating” value [11, 25] was 1, the “Velvetleaf plant response rating” value [11, 27] was 0 and the “Velvetleaf plant response rating” value [11, 21] was 2.
In the case of `CC(C)N(C(=O)n1oc(=O)n(C2CCCC2)c1=O)c1ccccc1` [Compound 283], the “Barley (winter) plant response rating (0 to 100 scale)” value ([1]; Rate 250 g/ha) is reported as 60, the “Plant response rating, Barley (winter)” value [1, 29] is reported as 75 and the “Plant response rating, Barley (winter)” value [1, 22] is reported as 80. For the same compound, the “Blackgrass plant response rating” value [2, 23] was 7, the “Blackgrass plant response rating” value [2, 18] was 9 and the “Plant response rating, Blackgrass” value [2, 24] was 10. The “Blackgrass plant response rating” value [2, 30] was 2, the “Blackgrass plant response rating” value [2, 31] was 6 and the “Blackgrass plant response rating” value [2, 27] was 8. The “Plant response rating, Blackgrass” value [2, 32] was 7, the “Blackgrass plant response rating” value [2, 21] was 7 and the “Plant response rating, Wheat (winter)” value [3, 13] was 75. The “Wheat (winter) plant response rating” value [3, 28] was 60, the “Plant response rating, Wheat (winter)” value ([3]; Rate 500 g/ha, 0 to 100 scale, 0 is no effect, 100 is complete control) was 50 and the “Wheat (winter) plant response rating (0 to 100 scale)” value ([4]; Rate 250 g/ha) was 50. For the same compound, the “Plant response rating, Wheat (winter)” value [4, 29] was 65, the “Plant response rating, Wheat (winter)” value [4, 22] was 80 and the “Blackgrass plant response rating (0 to 100 scale)” value ([5]; Rate 250 g/ha) was 50. For the same compound, the “Plant response rating, Blackgrass” value [5, 29] was 60, the “Plant response rating, Blackgrass” value [5, 22] was 85 and the “Bedstraw plant response rating” value [6, 23] was 0. The “Bedstraw plant response rating” value [6, 18] was 1, the “Plant response rating, Bedstraw” value [6, 24] was 9 and the “Bedstraw plant response rating” value [6, 30] was 0. For the same compound, the “Bedstraw plant response rating” value [6, 31] was 1, the “Bedstraw plant response rating” value [6, 27] was 0 and the “Plant response rating, Bedstraw” value [6, 32] was 5. For the same compound, the “Bedstraw plant response rating” value [6, 21] was 6, the “Green foxtail plant response rating (0 to 100 scale)” value ([7]; Rate 250 g/ha) was 100 and the “Plant response rating, Green foxtail” value [7, 29] was 100. The “Plant response rating, Green foxtail” value [7, 22] was 100, the “I. Ryegrass plant response rating (0 to 100 scale)” value ([8]; Rate 250 g/ha) was 70 and the “Plant response rating, I. Ryegrass” value [8, 29] was 90. For the same compound, the “Plant response rating, I. Ryegrass” value [8, 22] was 98, the “Wild oat plant response rating (0 to 100 scale)” value [9] was 65 and the “Plant response rating, Wild oat” value [9, 29] was 50. The “Plant response rating, Wild oat” value [9, 22] was 70, the “Soybean plant response rating” value [10, 23] was 0 and the “Soybean plant response rating” value [10, 18] was 0. The “Plant response rating, Soybean” value [10, 24] was 0, the “Soybean plant response rating” value [10, 30] was 4 and the “Soybean plant response rating” value [10, 31] was 4. For the same compound, the “Soybean plant response rating” value [10, 27] was 0, the “Plant response rating, Soybean” value [10, 32] was 5 and the “Soybean plant response rating” value [10, 21] was 7. The “Velvetleaf plant response rating” value [11, 23] was 0, the “Velvetleaf plant response rating” value [11, 18] was 5 and the “Plant response rating, Velvetleaf” value [11, 24] was 7. The “Velvetleaf plant response rating” value [11, 30] was 0, the “Velvetleaf plant response rating” value [11, 31] was 0 and the “Velvetleaf plant response rating” value [11, 27] was 2. For the same compound, the “Plant response rating, Velvetleaf” value [11, 32] was 1 and the “Velvetleaf plant response rating” value [11, 21] was 3.
